The values that follow are results of earlier work, collected in patent US20240316119A1, “COMPOSITIONS AND METHODS FOR SUPPRESSING PATHOGENIC ORGANISMS” (VEDANTA BIOSCIENCES, INC., priority 2021, published 2024).

The data set deals with Klebsiella pneumoniae and Citrobacter rodentium. Particulars: reported in Stacy et al. Cell. 2021 184(3):615-627.

Consider `NCCS(=O)(=O)O` [taurine, 2-aminoethanesulfonic acid], for which the “effect of supplying exogenous taurine alone on microbiota function and resistance to infection” value is “sufficient to induce this alteration in microbiota function and enhance resistance”.
